Values of other authors, collected in article PMC9516332 (Frontiers in Oncology, 2022).
Where two headings read alike, the source gives them in different places.

Experiments:
Conditions in all cases: cited from earlier work
[1] = target: panel of 255 wild-type kinases (Homo sapiens, UniProt O75116)
[2] = target: panel of 255 wild-type kinases (Homo sapiens, UniProt P19784)
[3] = target: panel of 255 wild-type kinases (Homo sapiens, UniProt O75676)
[4] = target: panel of 255 wild-type kinases (Homo sapiens, UniProt P17252)
[5] = target: panel of 255 wild-type kinases (Homo sapiens, UniProt P49840)
[6] = target: panel of 255 wild-type kinases (Homo sapiens, UniProt Q14289)
[7] = target: panel of 255 wild-type kinases (Homo sapiens, UniProt Q9UQM7)
[8] = target: T1, panel of 255 wild-type kinases (Homo sapiens, UniProt Q9BZL6)
T1 sequence (Q9BZL6 1-878): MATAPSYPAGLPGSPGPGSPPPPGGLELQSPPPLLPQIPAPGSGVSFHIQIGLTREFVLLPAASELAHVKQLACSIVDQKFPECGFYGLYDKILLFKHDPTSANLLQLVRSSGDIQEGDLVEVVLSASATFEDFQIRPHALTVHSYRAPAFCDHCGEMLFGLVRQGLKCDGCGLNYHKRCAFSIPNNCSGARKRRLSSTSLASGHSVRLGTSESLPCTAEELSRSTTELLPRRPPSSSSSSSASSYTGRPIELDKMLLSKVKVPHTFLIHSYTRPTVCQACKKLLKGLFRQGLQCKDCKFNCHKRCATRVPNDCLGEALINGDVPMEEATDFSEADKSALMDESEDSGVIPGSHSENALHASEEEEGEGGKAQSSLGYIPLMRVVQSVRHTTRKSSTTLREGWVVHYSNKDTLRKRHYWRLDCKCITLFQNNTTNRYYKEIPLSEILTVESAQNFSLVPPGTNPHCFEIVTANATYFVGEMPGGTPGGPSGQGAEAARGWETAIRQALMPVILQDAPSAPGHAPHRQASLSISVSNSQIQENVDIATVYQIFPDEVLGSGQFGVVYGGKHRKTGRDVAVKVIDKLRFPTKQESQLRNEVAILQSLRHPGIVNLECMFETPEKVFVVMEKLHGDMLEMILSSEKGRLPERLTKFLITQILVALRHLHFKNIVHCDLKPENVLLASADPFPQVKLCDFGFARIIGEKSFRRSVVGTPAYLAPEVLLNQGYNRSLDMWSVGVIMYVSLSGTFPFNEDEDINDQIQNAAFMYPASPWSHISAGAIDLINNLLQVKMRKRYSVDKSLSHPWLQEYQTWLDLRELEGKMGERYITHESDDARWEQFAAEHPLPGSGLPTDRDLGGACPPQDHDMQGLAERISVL

[9] = target: panel of 255 wild-type kinases (Homo sapiens, UniProt P35968)
[10] = target: panel of 255 wild-type kinases (Homo sapiens, UniProt Q9P0L2)
[11] = kinase ROCK2, 1 µmol/L single concentration, ref DOI: 10.1158/1535-7163.MCT-18-0877
[12] = kinase CK2α2/β, 1 µmol/L single concentration, ref DOI: 10.1158/1535-7163.MCT-18-0877
[13] = MSK2, 1 µmol/L single concentration, ref DOI: 10.1158/1535-7163.MCT-18-0877
[14] = kinase PKCα, 1 µmol/L single concentration, ref DOI: 10.1158/1535-7163.MCT-18-0877
[15] = kinase GSK3α, 1 µmol/L single concentration, ref DOI: 10.1158/1535-7163.MCT-18-0877
[16] = kinase PYK2, 1 µmol/L single concentration, ref DOI: 10.1158/1535-7163.MCT-18-0877
[17] = CaMK2α kinase assay, 1 µmol/L single concentration, ref DOI: 10.1158/1535-7163.MCT-18-0877
[18] = kinase PKD2, 1 µmol/L single concentration, ref DOI: 10.1158/1535-7163.MCT-18-0877
[19] = kinase KDR, 1 µmol/L single concentration, ref DOI: 10.1158/1535-7163.MCT-18-0877
[20] = MARK1, 1 µmol/L single concentration, ref DOI: 10.1158/1535-7163.MCT-18-0877
[21] = kinase ROCK2, 1 µmol/L single concentration, ref DOI: 10.1371/journal.pone.0092146
[22] = kinase CK2α2/β, 1 µmol/L single concentration, ref DOI: 10.1371/journal.pone.0092146
[23] = MSK2, 1 µmol/L single concentration, ref DOI: 10.1371/journal.pone.0092146
[24] = kinase PKCα, 1 µmol/L single concentration, ref DOI: 10.1371/journal.pone.0092146
[25] = kinase GSK3α, 1 µmol/L single concentration, ref DOI: 10.1371/journal.pone.0092146
[26] = CaMK2α kinase assay, 1 µmol/L single concentration, ref DOI: 10.1371/journal.pone.0092146
[27] = MARK1, 1 µmol/L single concentration, ref DOI: 10.1371/journal.pone.0092146
[28] = kinase PYK2, 1 µmol/L single concentration, ref DOI: 10.1371/journal.pone.0092146
[29] = kinase PKD2, 1 µmol/L single concentration, ref DOI: 10.1371/journal.pone.0092146
[30] = kinase KDR, 1 µmol/L single concentration, ref DOI: 10.1371/journal.pone.0092146

SMILES | %-inhibition at 1 µmol/L, ROCK2 [1, 11] | %-inhibition at 1 µmol/L, CK2α2/β [2, 12] | %-inhibition, MSK2 [3, 13] | %-inhibition at 1 µmol/L, PKCα [4, 14] | %-inhibition at 1 µmol/L, GSK3α [5, 15] | %-inhibition at 1 µmol/L, PYK2 [6, 16] | %-inhibition CaMK2α [7, 17] | %-inhibition at 1 µmol/L, PKD2 [8, 18] | %-inhibition at 1 µmol/L, KDR [9, 19] | %-inhibition, MARK1 [10, 20] | %-inhibition at 1 µmol/L, ROCK2 [1, 21] | %-inhibition CaMK2α [7, 26] | %-inhibition, MARK1 [10, 27] | also measured
CC#CC(=O)N1CCC[C@H]1c1nc(-c2ccc(C(=O)Nc3ccccn3)cc2)c2c(N)nccn12 [acalabrutinib] | -2.29% | 10% | 1.53% | -17% | 2.47% | -3.55% | -3.43% | -10% | 7% | -3.49% | – | – | – | –
CCc1cc2c(cc1N1CCC(N3CCOCC3)CC1)C(C)(C)c1[nH]c3cc(C#N)ccc3c1C2=O [alectinib] | 4.54% | -3% | 1.22% | 1.48% | 4.36% | 47% | 0.405% | -1.05% | 18% | 8% | – | – | – | –
COc1cc(N2CCC(N3CCN(C)CC3)CC2)ccc1Nc1ncc(Cl)c(Nc2ccccc2P(C)(C)=O)n1 [brigatinib] | – | – | – | – | – | – | – | – | – | – | – | – | – | %-inhibition at 1 µmol/L, ROCK2 [1]: 30%; %-inhibition at 1 µmol/L, CK2α2/β [2]: -4%; %-inhibition, MSK2 [3]: 10%; %-inhibition at 1 µmol/L, PKCα [4]: 15%; %-inhibition at 1 µmol/L, GSK3α [5]: 4%; %-inhibition at 1 µmol/L, PYK2 [6]: 104%; %-inhibition CaMK2α [7]: 86%; %-inhibition at 1 µmol/L, PKD2 [8]: 86%; %-inhibition at 1 µmol/L, KDR [9]: 86%; %-inhibition, MARK1 [10]: 96%
Cc1cc(Nc2ncc(Cl)c(Nc3ccccc3S(=O)(=O)C(C)C)n2)c(OC(C)C)cc1C1CCNCC1 [ceritinib] | – | -6% | 2.2% | -9% | 15% | 100% | 15% | 25% | 58% | 8.55% | – | – | – | –
O=C(c1ccc(F)c(F)c1Nc1ccc(I)cc1F)N1CC(O)([C@@H]2CCCCN2)C1 [cobimetinib] | 3.55% | -6% | -0.0695% | 1.54% | 3.42% | 2.5% | 7% | -11% | 13% | -5% | – | – | – | –
C[C@@H](Oc1cc(-c2cnn(C3CCNCC3)c2)cnc1N)c1c(Cl)ccc(F)c1Cl [crizotinib] | – | – | – | – | – | – | – | – | – | – | 4.25% | -2.77% | 27% | %-inhibition at 1 µmol/L, CK2α2/β [2, 22]: -10%; %-inhibition, MSK2 [3, 23]: -1.8%; %-inhibition at 1 µmol/L, PKCα [4, 24]: -8.47%; %-inhibition at 1 µmol/L, GSK3α [5, 25]: -2.56%
CC(C)(C)c1nc(-c2cccc(NS(=O)(=O)c3c(F)cccc3F)c2F)c(-c2ccnc(N)n2)s1 [dabrafenib] | – | – | – | – | – | – | – | – | – | – | 14% | -2.14% | -15% | %-inhibition at 1 µmol/L, PYK2 [6, 28]: 56%; %-inhibition at 1 µmol/L, PKD2 [8, 29]: 82%
C=CC(=O)N1CCC[C@@H](n2nc(-c3ccc(Oc4ccccc4)cc3)c3c(N)ncnc32)C1 [ibrutinib] | 3.74% | -7% | -2% | 0.745% | 2.24% | 3.37% | -1.35% | -3.2% | 84% | 2.46% | – | – | – | –
CO[C@@H]1[C@H](N(C)C(=O)c2ccccc2)C[C@H]2O[C@]1(C)n1c3ccccc3c3c4c(c5c6ccccc6n2c5c31)C(=O)NC4 [midostaurin] | 38% | 2% | 77% | 92% | – | 72% | – | – | – | – | – | – | – | %-inhibition at 1 µmol/L, GSK3α [5]: 87%
C=CC(=O)Nc1cc(Nc2nccc(-c3cn(C)c4ccccc34)n2)c(OC)cc1N(C)CCN(C)C [osimertinib] | 6.54% | 16% | 0.681% | 11% | 15% | 62% | 2% | 16% | 46% | 19% | – | – | – | –
CC(=O)Nc1cccc(-n2c(=O)n(C3CC3)c(=O)c3c(Nc4ccc(I)cc4F)n(C)c(=O)c(C)c32)c1 [trametinib] | – | – | – | – | – | – | – | – | – | – | 3% | -1.65% | -17% | %-inhibition at 1 µmol/L, CK2α2/β [2, 22]: -5.29%; %-inhibition, MSK2 [3, 23]: -4.75%; %-inhibition at 1 µmol/L, PKCα [4, 24]: -5%; %-inhibition at 1 µmol/L, GSK3α [5, 25]: 1.59%; %-inhibition at 1 µmol/L, PYK2 [6, 28]: 2.72%; %-inhibition at 1 µmol/L, PKD2 [8, 29]: -3.28%; %-inhibition at 1 µmol/L, KDR [9, 30]: -0.549%
CCCS(=O)(=O)Nc1ccc(F)c(C(=O)c2c[nH]c3ncc(-c4ccc(Cl)cc4)cc23)c1F [vemurafenib] | – | – | – | – | – | – | – | – | – | – | -0.177% | -4.25% | -9% | %-inhibition at 1 µmol/L, CK2α2/β [2, 22]: -6.56%; %-inhibition, MSK2 [3, 23]: -1%; %-inhibition at 1 µmol/L, PKCα [4, 24]: -3.61%; %-inhibition at 1 µmol/L, GSK3α [5, 25]: 25%; %-inhibition at 1 µmol/L, PYK2 [6, 28]: 0.921%; %-inhibition at 1 µmol/L, PKD2 [8, 29]: -13%; %-inhibition at 1 µmol/L, KDR [9, 30]: 13%
